pEC50: −log10 of the molar value. Where a name gives a salt, the structure may show the parent alone.

The first experiment deals with ring stage parasites. Kind of experiment: Parasite growth potency assay, 72 hours, LDH readout. The class given is cell-based. Conditions: 72 h. The procedure:
The parasite stock was maintained at 4% haematocrit in RPMI-Hepes media buffered with sodium bicarbonate and supplemented with 5% heat inactivated human serum and 0.5% albumax.
On the day of assay set up, a blood smear of the parasite culture was Giemsa stained and counted. The parasitemia was adjusted to 0.7% rings and the haematocrit was diluted to 2% in RPMI-Hepes media buffered with sodium bicarbonate and supplemented with 5% heat inactivated human serum and 0.5% albumax. 30 ul of diluted parasites are then added into 10 ul of media+compound in pre-prepared Greiner TC assay plates. Parasite assay plates were placed in gassed humidified boxes in single layer and allowed to incubate at 37° C. for 72 hours. After 72 hours growth, assay plates are sealed with parafilm and frozen flat, in single file at −80° C. overnight. On the following day, assay plates are allowed to thaw at room temperature for 4 hours to which an LDH assay is performed to measure parasite growth.
On to `CCC1(CC)CC(=O)N([C@H](c2ccc(OS(=O)(=O)F)cc2)c2cccc(C(=O)N[C@H]3CCOc4ccccc43)c2)C(=N)N1` [Example 150, [1-[[3-[[(4S)-chroman-4-yl]carbamoyl]phenyl]-(4-fluorosulfonyloxyphenyl)methyl]-4,4-diethyl-6-oxo-hexahydropyrimidin-2-ylidene]ammonium; 2,2,2-trifluoroacetate], for which the pEC50 was 8.55.

Compound `CCC1(CC)CC(=O)N([C@H](c2cccc(OS(=O)(=O)F)c2)c2cccc(C(=O)N[C@H]3CCOc4ccccc43)c2)C(=N)N1` [Example 149A, [1-[[3-[[(4S)-chroman-4-yl]carbamoyl]phenyl]-(3-fluorosulfonyloxyphenyl)methyl]-4,4-diethyl-6-oxo-hexahydropyrimidin-2-ylidene]ammonium; 2,2,2-trifluoroacetate] showed a pEC50 of 8.82.

Staying with this experiment, now noted: 72 h, parasite growth measured by LDH assay after 72 hours at 37° C.; 0.7% rings, 2% haematocrit; read-out: EC50.
`CCC1(CC)CC(=O)N(C(COC)c2cccc(C(=O)N[C@@H]3c4ccccc4OC[C@]3(C)O)c2)C(=N)N1` (stereo partly drawn) [Example 229, 3-[1-(4,4-diethyl-2-imino-6-oxo-hexahydropyrimidin-1-yl)-2-methoxy-ethyl]-N-[(3R,4R)-3-hydroxy-3-methyl-chroman-4-yl]benzamide]: the pEC50 was 8.66.

For `CCC[C@H](c1cccc(C(=O)N[C@H]2CCOc3ccccc32)c1)N1C(=N)N[C@](CC)(c2ccccc2)CC1=O` [Example 70, [(4S)-1-[(1R)-1-[3-[[(4S)-chroman-4-yl]carbamoyl]phenyl]butyl]-4-ethyl-6-oxo-4-phenyl-hexahydropyrimidin-2-ylidene]ammonium; 2,2,2-trifluoroacetate], the pEC50 is 7.12.

Take `CCC1(CC)CC(=O)N([C@H](COC)c2cccc(C(=O)N[C@H]3CCOc4ccccc43)c2)C(=N)N1` [Example 19, [1-[1-[3-[[(4S)-chroman-4-yl]carbamoyl]phenyl]-2-methoxy-ethyl]-4,4-diethyl-6-oxo-hexahydropyrimidin-2-ylidene]ammonium; 2,2,2-trifluoroacetate]: the pEC50 was 9.22.

As to `CCC1(CC)CC(=O)N(Cc2cccc(C(=O)N[C@@H]3C[C@@H](C(F)(F)F)Oc4ccccc43)c2)C(=N)N1` (stereo in doubt) [Example 91B, [4,4-diethyl-6-oxo-1-[[3-[[2-(trifluoromethyl)chroman-4-yl]carbamoyl]phenyl]methyl]hexa-hydropyrimidin-2-ylidene]ammonium; 2,2,2-trifluoroacetate], the pEC50 is 7.20.

On to `CCC1(CC)CC(=O)N([C@H](CCS(C)(=O)=O)c2cccc(C(=O)N[C@@H]3c4ccccc4C[C@H]3O)c2)C(=N)N1` [Example 153, [4,4-diethyl-1-[1-[3-[[(1R,2R)-2-hydroxyindan-1-yl]carbamoyl]phenyl]-3-methylsulfonyl-propyl]-6-oxo-hexahydropyrimidin-2-ylidene]ammonium; 2,2,2-trifluoroacetate], for which the pEC50 was 7.11.

For `CCC1(CC)CC(=O)N(Cc2cccc(C(=O)N[C@@H]3c4ccccc4C[C@H]3O)n2)C(=N)N1` [Example 37, [4,4-diethyl-1-[[6-[[(1R,2R)-2-hydroxyindan-1-yl]carbamoyl]-2-pyridyl]methyl]-6-oxo-hexahydropyrimidin-2-ylidene]ammonium; 2,2,2-trifluoroacetate], the pEC50 was 7.84.

For the compound `CCC[C@H](c1cccc(C(=O)N[C@@H]2c3ccccc3C[C@H]2O)c1)N1C(=N)N[C@@](CC)(c2ccccc2)CC1=O` [Example 67, [(4R)-4-ethyl-1-[(1R)-1-[3-[[(1R,2R)-2-hydroxyindan-1-yl]carbamoyl]phenyl]butyl]-6-oxo-4-phenyl-hexahydropyrimidin-2-ylidene]ammonium; 2,2,2-trifluoroacetate], the pEC50 was 8.57.

Take `N=C1N[C@@](CC2CC2)(c2ccccc2)CC(=O)N1Cc1cccc(C(=O)N[C@@H]2c3ccccc3C[C@H]2O)c1` [Example 17, [(4R)-4-(cyclopropylmethyl)-1-[[3-[[(1R,2R)-2-hydroxyindan-1-yl]carbamoyl]phenyl]methyl]-6-oxo-4-phenyl-hexahydropyrimidin-2-ylidene]ammonium; 2,2,2-trifluoroacetate]: the pEC50 was 8.43.

On to `CCC[C@H](c1cccc(C(=O)N[C@H]2c3ccccc3OCC2O)c1)N1C(=N)NC(CC)(CC)CC1=O` (stereo partly drawn) [Example 127A, 3-[(1R)-1-(4,4-diethyl-2-imino-6-oxo-hexahydropyrimidin-1-yl)butyl]-N-(3-hydroxychroman-4-yl)benzamide], for which the pEC50 is 7.01.

Still in this experiment, the particulars now being: parasite growth measured by LDH assay after 72 hours at 37° C.; 0.7% rings, 2% haematocrit; read-out: EC50.
On to `CCC1(CC)CC(=O)N([C@H](CCOC)c2cccc(C(=O)N[C@@H]3c4ccccc4CC3(O)C(F)(F)F)c2)C(=N)N1` (single isomer, unassigned) [Example 204A], for which the pEC50 was 7.68.

Regarding `CCC1(CC)CC(=O)N(C(CC(O)C(F)(F)F)c2cccc(C(=O)N[C@@H]3c4ccccc4C[C@H]3O)c2)C(=N)N1` (single isomer, unassigned) [Example 236A], the pEC50 is 7.26.

As for `CCC1(C)CC(=O)N([C@H](CCOC)c2cccc(C(=O)N[C@@H]3c4ccccc4CC3(C)O)c2)C(=N)N1` (stereo partly drawn) [Example 196B, 3-[(1R)-1-(4-ethyl-2-imino-4-methyl-6-oxo-hexahydropyrimidin-1-yl)-3-methoxy-propyl]-N-[(1R,2S)-2-hydroxy-2-methyl-indan-1-yl]benzamide], the pEC50 was 8.51.

As to `CCC[C@H](c1cccc(C(=O)N[C@H]2c3ccccc3CC2(C)O)c1)N1C(=N)NC(CC)(CC)CC1=O` (single isomer, unassigned) [Example 122B], the pEC50 is 7.75.

As for `CCC1(C)CC(=O)N([C@H](CCOC)c2cccc(C(=O)N[C@@H]3c4ccccc4CC3(C)O)c2)C(=N)N1` (stereo partly drawn) [Example 196D, 3-[(1R)-1-(4-ethyl-2-imino-4-methyl-6-oxo-hexahydropyrimidin-l-yl)-3-methoxy-propyl]-N-[(1R,2R)-2-hydroxy-2-methyl-indan-1-yl]benzamide], the pEC50 is 8.17.

Regarding `CCC12CCCCCCC3COc4ccccc4C3NC(=O)c3cccc(c3)CN(C(=N)N1)C(=O)C2` (single isomer, unassigned) [Example 120A, (26-ethyl-8,29-dioxo-17-oxa-1,9,27-triazapentacyclo[24.2.2.13,7.010,19. 011,16]hentriaconta-3,5,7(31),11(16),12,14-hexaen-28-ylidene)ammonium; 2,2,2-trifluoroacetate], the pEC50 was 7.15.

Consider `CCC1(CC)CC(=O)N([C@@H](c2cccc(C(=O)N[C@@H]3CC(C)(C)Oc4ccccc43)c2)c2cncs2)C(=N)N1` (stereo in doubt) [Example 90A, 3-[(4,4-diethyl-2-imino-6-oxo-hexahydropyrimidin-1-yl)-thiazol-5-yl-methyl]-N-(2,2-dimethylchroman-4-yl)benzamide], for which the pEC50 is 8.49.

As to `CCC1(CC)CC(=O)N([C@H](COCCOC)c2cccc(C(=O)NC3c4ccccc4CC3(C)O)c2)C(=N)N1` (stereo partly drawn) [Example 146B, 3-[(1S)-1-(4,4-diethyl-2-imino-6-oxo-hexahydropyrimidin-1-yl)-2-(2-methoxyethoxy)ethyl]-N-(2-hydroxy-2-methyl-indan-1-yl)benzamide], the pEC50 was 8.19.

Take `COCC[C@H](c1cccc(C(=O)N[C@@H]2c3ccccc3C[C@]2(C)O)c1)N1C(=N)NC(C)(C)CC1=O` [Example 166B, N-[(1R,2S)-2-hydroxy-2-methyl-indan-1-yl]-3-[(1R)-1-(2-imino-4,4-dimethyl-6-oxo-hexahydropyrimidin-1-yl)-3-methoxy-propyl]benzamide]: the pEC50 is 7.75.

The experiment is the same for the next values; noted with them: parasite growth measured by LDH assay after 72 hours at 37° C.; 0.7% rings, 2% haematocrit; trifluoroacetate; read-out: EC50.
Consider `CCC1(CC)CC(=O)N([C@H](CCOC)c2cccc(C(=O)NC3c4ccccc4C(F)(F)C3O)c2)C(=N)N1` (stereo partly drawn) [Example 189A, [1-[(1R)-1-[3-[(3,3-difluoro-2-hydroxy-indan-1-yl)carbamoyl]phenyl]-3-methoxy-propyl]-4,4-diethyl-6-oxo-hexahydropyrimidin-2-ylidene]ammonium; 2,2,2-trifluoroacetate], for which the pEC50 was 9.10.

On to `CCC1(CC)CC(=O)N([C@H](CCOC)c2cccc(C(=O)N[C@@H]3c4ccccc4OC3(C)CO)c2)C(=N)N1` (single isomer, unassigned) [Example 180A, trifluoroacetate], for which the pEC50 was 8.82.

For the compound `C#CCCCC(c1cccc(C(=O)N[C@@H]2CCOc3ccccc32)c1)N1C(=N)NC(CC)(CC)CC1=O` (stereo partly drawn) [Example 210B, [1-[1-[3-[[(4R)-chroman-4-yl]carbamoyl]phenyl]hex-5-ynyl]-4,4-diethyl-6-oxo-hexahydropyrimidin-2-ylidene]ammonium; 2,2,2-trifluoroacetate], the pEC50 was 8.64.

Turning to `CCC1(CC)CC(=O)N(Cc2cncc(C(=O)NC3CC(C)(C)Oc4ccccc43)c2)C(=N)N1` (centres unmarked) [Example 82, [1-[[5-[(2,2-dimethylchroman-4-yl)carbamoyl]pyridin-1-ium-3-yl]methyl]-4,4-diethyl-6-oxo-hexahydropyrimidin-2-ylidene]ammonium; 2,2,2-trifluoroacetate], the pEC50 was 7.40.

On to `CCC1(CC)CC(=O)N([C@H](C)c2cccc(C(=O)N[C@@H]3c4ccccc4OC[C@]3(C)O)c2)C(=N)N1` [Example 205B, [4,4-diethyl-1-[(1R)-1-[3-[[(3R,4R)-3-hydroxy-3-methyl-chroman-4-yl]carbamoyl]phenyl]ethyl]-6-oxo-hexahydropyrimidin-2-ylidene]ammonium; 2,2,2-trifluoroacetate], for which the pEC50 was 8.72.

Take `CCC1(CC)CC(=O)N([C@H](CCOC)c2cc(F)cc(C(=O)NC3c4ccccc4OC3(C)COC)c2)C(=N)N1` (single isomer, unassigned) [Example 176C, trifluoroacetate]: the pEC50 is 7.00.

A word on the pEC50: it is the negative decadic logarithm of the EC50, by convention in mol/L.
